Results taken from US20250255298A1, “PENETRATION PROMOTER” (IBIDEN CO., LTD., priority 2023, published 2025).

tested on: soybean (variety: Fukuyutaka) leaves; assay: Test on penetrability in soybean (absorbent cotton with test penetrant on leaf, LC-MS/MS of leaf extract); conditions: penetration promoter solutions of Examples 1 and 2
Experimental: (§1) A solution obtained by adding 40 μL (20 mg) of pine oil (manufactured by ease Inc.) to 2000 mL of each of the penetration promoter solutions 1 to 8 was used as a terpene test penetrant.
(§2) A liquid obtained by dissolving 450 mg of ground nucleic acid particles (manufactured by Kenkououendan Inc.) in 2000 mL of each of the penetration promoter solutions 1 to 8 was used as a nucleic acid test penetrant.
A liquid obtained by dispersing 100 mg of soybean-derived lecithin (manufactured by FUJIFILM Wako Pure Chemical Corporation) in 2000 mL of each of the penetration promoter solutions 1 to 8 was used as a phospholipid test penetrant. • Penetrability test of each organic substance using test penetrant
Four soybean (variety: Fukuyutaka) seeds were seeded, per pot, in a No. 3 pot containing Seeding Soil for Vegetables and Flowers (manufactured by Takii Co., Ltd.). […]
(§3) The analysis sample was analyzed for the amount of terpene using an LC-MS/MS apparatus (LC part: DIONEX Ultimate3000, MS/MS part: Q Exactive Focus: manufactured by Thermo Fisher Scientific K.K.) under the following conditions. […] Quantification was performed from the MS-peak area value of α-pinene contained in pine oil (manufactured by ease Inc.), and the amounts of terpene penetrated into the intralobar tissue by the penetration promoter solutions 1 to 8 (Examples 1 and 2 and Comparative Examples 1 to 6) were compared. […]

| Compound | penetrability with oleic acid as compared with terpene |
| --- | --- |
| CCCCCCCC/C=C\CCCCCCCC(=O)O [oleic acid] | slightly decreased |

tested on: Rice (variety: Nipponbare) leaves; assay: Test on penetrability in rice (cut leaves soaked in test penetrant, LC-MS/MS of leaf extract); conditions: penetration promoter solutions of Examples 1 and 2
Experimental: as §1, §2
A liquid obtained by dispersing 100 mg of soybean-derived lecithin (manufactured by FUJIFILM Wako Pure Chemical Corporation) in 2000 mL of each of the penetration promoter solutions 1 to 8 was used as a phospholipid test penetrant. • Penetrability test of each organic substance using test penetrant […]
as §3

| Compound | penetrability with oleic acid as compared with terpene |
| --- | --- |
| CCCCCCCC/C=C\CCCCCCCC(=O)O [oleic acid] | slightly decreased |

tested on: not given; assay: not given; conditions: indicated as common logarithmic value Log Kow or Log P; cited from earlier work

| Compound | octanol/water partition coefficient |
| --- | --- |
| Nc1ncnc2nc[nH]c12 [adenine] | −0.1 |
| Nc1ncnc2c1ncn2[C@@H]1O[C@H](COP(=O)(O)O)[C@@H](O)[C@H]1O [adenosine monophosphate] | −3.1 |
| Nc1ncnc2c1ncn2[C@@H]1O[C@H](CO)[C@@H](O)[C@H]1O [adenosine] | −1.2 |
| C[C@H](N)C(=O)O [alanine] | −2.85 |
| N[C@@H](CS)C(=O)O [cysteine] | −2.49 |
| Nc1cc[nH]c(=O)n1 [cytosine] | −1.73 |
| N[C@@H](CCC(=O)O)C(=O)O [glutamic acid] | −3.69 |
| NC(=O)CC[C@H](N)C(=O)O [glutamine] | −3.64 |
| Nc1nc2nc[nH]c2c(=O)[nH]1 [guanine] | −0.91 |
| Nc1nc2c(ncn2[C@@H]2O[C@H](CO)[C@@H](O)[C@H]2O)c(=O)[nH]1 [guanosine] | −1.9 |
| N[C@@H](Cc1c[nH]cn1)C(=O)O [histidine] | −3.32 |
| CC[C@H](C)[C@H](N)C(=O)O [isoleucine] | −1.70 |
| CC(C)C[C@H](N)C(=O)O [leucine] | −1.52 |
| NCCCC[C@H](N)C(=O)O [lysine] | −3.05 |
| CSCC[C@H](N)C(=O)O [methionine] | −1.87 |
| CCCCCCCC/C=C\CCCCCCCC(=O)O [oleic acid] | 7.73 |
| N[C@@H](Cc1ccccc1)C(=O)O [phenylalanine] | −1.38 |
| O=C(O)[C@@H]1CCCN1 [proline] | −2.54 |
| N[C@@H](CO)C(=O)O [serine] | −3.07 |
| Cc1cn([C@H]2C[C@H](O)[C@@H](COP(=O)(O)O)O2)c(=O)[nH]c1=O [thymidine monophosphate] | −2.8 |
| Cc1cn([C@H]2C[C@H](O)[C@@H](CO)O2)c(=O)[nH]c1=O [thymidine] | −0.93 |
| Cc1c[nH]c(=O)[nH]c1=O [thymine] | −0.62 |
| N[C@@H](Cc1c[nH]c2ccccc12)C(=O)O [tryptophan] | −1.05 |
| O=c1ccn([C@@H]2O[C@H](CO)[C@@H](O)[C@H]2O)c(=O)[nH]1 [uridine] | −1.98 |
| CC(C)[C@H](N)C(=O)O [valine] | −2.26 |
